# Values joined by “and” are separate entries in the source; they are usually repeats but may differ in a detail not shown here. Equal values may be shown once. Read-outs that look alike come from different tables or passages of the source.
# Key:
# [1] = system: Staphylococcus aureus T3-129 / Staphylococcus spp. MK1; test: Synergy studies, checkerboard method (FIC index); format: cell-based; settings: S. aureus strain T3-29
# S. pneumoniae isolates = test: Micro-broth dilution MIC, Example 5; format: cell-based, Streptococcus pneumoniae
# Method: For all in vitro assays, fresh pneumococcal isolates were grown overnight (O/N) on horse blood agar (HBA) plates (39 g/L Columbia blood agar base [Oxoid] 5% [v/v] defribinated horse blood [Oxoid] at 37° C. with 5% supplemented CO2). Mueller-Hinton blood agar with 5% defibrinated sheep blood (MHSBA Roseworthy Media and Blood Service) was used for disk diffusion analysis as directed by Clinical Laboratory Standards Institute (CLSI) standards. Pneumococci were routinely grown in broth consisting of 4% lysed horse blood (LHB) with Cation Adjusted Mueller Hinton Broth (CAHMB, [Difco]) at 37° C. with 5% supplemented CO2. […] Isolates were stored in HSB at −80° C.
# [Micro-broth dilutions and 96 well trays are prepared by the following method: 90 μL of 4% LHB:CAMHB is aliquotted into all wells using a multichannel pipette. 90 μL of working antimicrobial stocks were no serial diluted down the tray by a 1:2 dilution. Negative broth controls and dilution control were taken into account when planning the set up of a 96 well tray.] 10 μL of bacterial suspension was then added to the appropriate wells in the 96 well tray. Appropriate positive (no antimicrobial), negative (no antimicrobial or bacteria) and negative dilution (a serial dilution control of antimicrobial and broth) controls were included in each assay. […] The MBC was determined by a 99.95% inhibition of S. pneumoniae, taking into account the dilution factor. MICs and MBCs were determined in quadruplicate and the mode was taken as the representative value. The MIC50, MIC90 and MIC range and MBC50, MBC90 and MBC range were determined according to CLSI standards. The MIC50 and MIC90, or MBC50 and MBC90, are defined by the lowest concentrations which, when all the MICs and MBCs of the isolates are arranged from lowest to highest, inhibited the 50th and 90th percentile of the total amount of isolates, respectively.
# Streptococcus pneumoniae = test: Broth microdilution MIC (CLSI) in 4% LHB-CAMHB, Example 1; format: cell-based; settings: for MIC: Streptococcus pneumoniae
# Method: The powder was dissolved in 10 mL DMSO and 1 mL volumes were aliquoted into eppendorf tubes and stored at -80° C. […] Serial dilutions were prepared in 96 well plates were set up in a safety cabinet according to methods standard in the art. Briefly: 90 μL of the working antibiotic solution was added to each well in Column 12 of the plate, and mixed well, before 90 μL was transferred to column 11. The solutions were mixed again, and then transferred to the next column as before, continuing the dilutions through to column 3. Mixing the well requires the pick up and expulsion of 90 μL in each well 3-4 times before picking up and transferring the 90 μL to the next well. […] The bacterial solution was placed into a sterile trough and 10 μL of bacterial solution added into wells 2 through to 12 on each required row (dilution of 1:10, with final concentration of bacteria in wells=5×10^5 CFU/mL). The tray was sealed and incubated at 37° C. for 18-24 h. The purity of bacterial suspension was confirmed by streaking out 50 μL of the 1:20 dilution onto a SBA plate, which was incubated for 37° C. for 18 h and examined. Viable counts were carried out to ensure that the correct concentration of bacteria and been added to the wells. […] The following day the number of colonies on the plates was counted and the average count in 100 μL obtained. The study was multiplied by 10 to obtain a viable bacterial count per mL. Minimum inhibitory concentrations (μg/mL) were determined using the broth microdilution method recommended by the Clinical and Laboratory Standards Institute (CLSI) (Methods for Dilution Antimicrobial Susceptibility Tests for Bacteria That Grow Aerobically; Approved Standard-Seventh Edition. CLSI M7-A7, 2006; Performance Standards for Antimicrobial Disk and Dilution Susceptibility Tests for Bacteria Isolated from Animals; Approved Standard-Second Edition. CLSI […]-A2, 2002; Performance Standards for Antimicrobial Susceptibility Testing; CLSI M2-A9, 2006). […] Bacterial growth (turbidity) in the wells with antimicrobial was compared with the amount of growth (turbidity) in the growth-control well (containing no antimicrobial). All isolates were tested in duplicate, if there was a difference of greater than one two-fold dilution in the results, the test was repeated a third time. The purity of the isolates was closely monitored during testing by subculturing the prepared bacterial inoculum onto SBA. Control organisms (Enterococcus faecalis strain ATCC 29212, S. aureus strain ATCC 29213 and S. pneumoniae strain ATCC 49619) were used throughout the testing to monitor quality control. […] The MIC50, MIC90 and MIC range (minimum and maximum) were calculated for each of the bacterial groups.
compound,measurement,setting,value
CC1(C)S[C@@H]2[C@H](NC(=O)[C@H](N)c3ccccc3)C(=O)N2[C@H]1C(=O)O [Ampicillin],FICI,[1]; FIC index of antibiotic with NCL812,0.75 and 0.53
same,FIC1,[1]; MIC of antibiotic in combination with NCL812/MIC of antibiotic alone,0.5
same,Result (interaction with NCL812),[1]; antibiotic with NCL812,NE (No effect (NE) was defined as 0.5<FICI<4)
same,MIC,"S. pneumoniae isolates; Streptococcus pneumoniae, D39, 4% LHB:CAMHB, read-out: Relative MIC with media type for D39",0.023 µg/mL
same,MIC,"S. pneumoniae isolates; Streptococcus pneumoniae, D39, 10% horse serum-supplemented broth, read-out: Relative MIC with media type for D39",0.09 µg/mL
same,MIC,"S. pneumoniae isolates; Streptococcus pneumoniae, isolate A66.1, Table 22, CAMHB diluent for NCL062, read-out: MIC",0.045 µg/mL
same,MIC,"S. pneumoniae isolates; Streptococcus pneumoniae, isolate D39, Table 22, CAMHB diluent for NCL062, read-out: MIC",0.0225 µg/mL
same,MIC,"S. pneumoniae isolates; Streptococcus pneumoniae, isolate P21, Table 22, CAMHB diluent for NCL062, read-out: MIC",0.0225 µg/mL
same,MIC,"S. pneumoniae isolates; Streptococcus pneumoniae, isolate WCH57, Table 22, CAMHB diluent for NCL062, read-out: MIC",0.09 µg/mL
same,MIC,"S. pneumoniae isolates; Streptococcus pneumoniae, isolate WCH158, Table 22, CAMHB diluent for NCL062, read-out: MIC",0.0225 µg/mL
same,MIC,"S. pneumoniae isolates; Streptococcus pneumoniae, isolate WU-2, Table 22, CAMHB diluent for NCL062, read-out: MIC",0.0225 µg/mL
same,MIC,"S. pneumoniae isolates; Streptococcus pneumoniae, pneumococcal isolate A66.1, read-out: MIC",0.045 µg/mL
same,MIC,"S. pneumoniae isolates; Streptococcus pneumoniae, pneumococcal isolate D39, read-out: MIC",0.023 µg/mL
same,MIC,"S. pneumoniae isolates; Streptococcus pneumoniae, pneumococcal isolate EF3030, read-out: MIC",0.023 µg/mL
same,MIC,"S. pneumoniae isolates; Streptococcus pneumoniae, pneumococcal isolate L82016, read-out: MIC",0.023 µg/mL
same,MIC,"S. pneumoniae isolates; Streptococcus pneumoniae, pneumococcal isolate P9, read-out: MIC",0.023 µg/mL
same,MIC,"S. pneumoniae isolates; Streptococcus pneumoniae, pneumococcal isolate P21, read-out: MIC",0.023 µg/mL
same,MIC,"S. pneumoniae isolates; Streptococcus pneumoniae, pneumococcal isolate TIGR4, read-out: MIC",0.023 µg/mL
same,MIC,"S. pneumoniae isolates; Streptococcus pneumoniae, pneumococcal isolate WCH16, read-out: MIC",0.023 µg/mL
same,MIC,"S. pneumoniae isolates; Streptococcus pneumoniae, pneumococcal isolate WCH43, read-out: MIC",0.023 µg/mL
same,MIC,"S. pneumoniae isolates; Streptococcus pneumoniae, pneumococcal isolate WCH46, read-out: MIC",0.023 µg/mL
same,MIC,"S. pneumoniae isolates; Streptococcus pneumoniae, pneumococcal isolate WCH57, read-out: MIC",0.023 µg/mL
same,MIC,"S. pneumoniae isolates; Streptococcus pneumoniae, pneumococcal isolate WCH77, read-out: MIC",0.023 µg/mL
same,MIC,"S. pneumoniae isolates; Streptococcus pneumoniae, pneumococcal isolate WCH86, read-out: MIC",0.023 µg/mL
same,MIC,"S. pneumoniae isolates; Streptococcus pneumoniae, pneumococcal isolate WCH89, read-out: MIC",0.023 µg/mL
same,MIC,"S. pneumoniae isolates; Streptococcus pneumoniae, pneumococcal isolate WCH92, read-out: MIC",0.09 µg/mL
same,MIC,"S. pneumoniae isolates; Streptococcus pneumoniae, pneumococcal isolate WCH137, read-out: MIC",0.023 µg/mL
same,MIC,"S. pneumoniae isolates; Streptococcus pneumoniae, pneumococcal isolate WCH158, read-out: MIC",0.023 µg/mL
same,MIC,"S. pneumoniae isolates; Streptococcus pneumoniae, pneumococcal isolate WCH184, read-out: MIC",0.045 µg/mL
same,MIC,"S. pneumoniae isolates; Streptococcus pneumoniae, pneumococcal isolate WCH211, read-out: MIC",0.023 µg/mL
same,MIC,"S. pneumoniae isolates; Streptococcus pneumoniae, pneumococcal isolate WU2, read-out: MIC",0.023 µg/mL
same,MIC50,"S. pneumoniae isolates; Streptococcus pneumoniae, all S. pneumoniae isolates, read-out: MIC50",0.023 µg/mL
same,MIC90,"S. pneumoniae isolates; Streptococcus pneumoniae, all S. pneumoniae isolates, read-out: MIC90",0.023 µg/mL
same,MIC range,S. pneumoniae isolates; all S. pneumoniae isolates,0.011 to 0.09 µg/mL
same,MIC90,"Streptococcus pneumoniae; Str. pneumoniae, 20 isolates",0.25 µg/mL
same,MIC90,"Streptococcus pneumoniae; Streptococcus pneumoniae isolates of Table 5, Test 1, read-out: MIC90",0.25 µg/mL
same,MIC90,"Streptococcus pneumoniae; Streptococcus pneumoniae isolates of Table 5, Test 2",0.25 µg/mL
same,MIC,"Streptococcus pneumoniae; ATCC49619, S. pneumoniae strain ATCC 49619, read-out: MIC of control strain (internal quality control)",0.06 µg/mL
same,MIC,"Streptococcus pneumoniae; ATCC49619, Strep. pneumoniae ATCC 49619, Test 1, read-out: MIC",< 0.25 µg/mL
same,MIC,"Streptococcus pneumoniae; ATCC49619, Strep. pneumoniae ATCC 49619, Test 2, read-out: MIC",< 0.25 µg/mL

# Source: patent US10253002B2, “Compounds and methods of treating infections” (Neoculi Pty Ltd., priority 2013, dated 2019)
